These results are taken from ChEMBL document CHEMBL1201862, “PubChem BioAssay data set” (2004).

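Briefly, cells in 96-well plates were exposed to five compound concentrations for 48 h, and endpoints were estimated by linear interpolation. Here, GI50 denotes the concentration required for 50% inhibition of growth.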 The source made the active and inactive calls. No stated cut-off is given here; in the data, active = GI50 up to about 1.1 µM and inactive = higher. Bounds are passed on as bounds.

Test systems include A549; CAKI-1; HL-60; K562; LOX IMVI; M14; NCI-H460; RXF 393; SF-268; SF-539; SK-MEL-28; SK-MEL-2; SK-MEL-5; SNB-75; DU-145; Hs-578T; MDA-MB-435; PC-3; BT-549.
Holding throughout (assay): NCI-60 cell line screen, 48 h

With `COC1=CC(=Nc2c(Cl)cc(Cl)cc2OC(=O)c2ccc([N+](=O)[O-])cc2)C=C(OC)C1=O`, the GI50 was 9.77 µM (inactive) in the assay on A549; 16.9 µM (inactive) in the assay with CAKI-1; 1.83 µM (inactive) with HL-60; 2.53 µM (inactive) with K562; 1.81 µM (inactive) in the assay with LOX IMVI; 13 µM (inactive) in the assay with M14. In addition, the GI50 in the assay on NCI-H460 is 14.4 µM (inactive); with RXF 393 it was 12.1 µM (inactive); in the assay on SF-268, 9.64 µM (inactive); in the assay with SF-539, 5.81 µM (inactive); in the assay on SK-MEL-28, 16.7 µM (inactive); with SK-MEL-2, 15.8 µM (inactive). Besides, the GI50 is 7.05 µM (inactive) in the assay with SK-MEL-5 and 14.2 µM (inactive) in the assay with SNB-75.
Turning to `C/N=C1\CC2c3cc(OC)c(OC)cc3CCN2C2=C1C(=O)CC(C)(C)C2` (stereo not drawn), the GI50 in the assay with A549, with CAKI-1, in the assay on HL-60, in the assay with LOX IMVI, in the assay with NCI-H460 and in the assay with RXF 393 was > 100 µM (inactive) each time. Also, the GI50 with SF-268, with SF-539, in the assay with SK-MEL-28, in the assay on SK-MEL-2, with SK-MEL-5 and in the assay on SNB-75 was > 100 µM (inactive) each time.
On to `CSCCCS/C1=C/CCCCCCCCCC1`, for which the GI50 in the assay with A549, in the assay on CAKI-1, in the assay on DU-145, in the assay on HL-60, in the assay with Hs-578T and in the assay with K562 was > 100 µM (inactive) in each case. In addition, the GI50 in the assay with LOX IMVI, with M14, in the assay on MDA-MB-435, with NCI-H460, in the assay on PC-3 and with RXF 393 was > 100 µM (inactive) in each case. The GI50 is > 100 µM (inactive) in the assay with SF-268; > 100 µM (inactive) with SF-539; > 100 µM (inactive) with SK-MEL-28; > 100 µM (inactive) in the assay with SK-MEL-2; > 100 µM (inactive) in the assay with SK-MEL-5; 0.281 µM (active) with SNB-75.
With `COc1cc(/C=C(\C#N)c2ccccn2)cc(Br)c1O`, the GI50 is 58.6 µM (inactive) in the assay with A549; 34.1 µM (inactive) in the assay with BT-549; 48.5 µM (inactive) with CAKI-1; > 100 µM (inactive) in the assay with DU-145; 24 µM (inactive) in the assay on HL-60; 4.48 µM (inactive) in the assay with K562. Moreover, the GI50 in the assay on M14 is 34.2 µM (inactive); in the assay with NCI-H460, 36.3 µM (inactive); in the assay on PC-3 it was 68.1 µM (inactive); in the assay with RXF 393, 46.2 µM (inactive); in the assay with SF-268 it was 51.4 µM (inactive); with SF-539, 31.3 µM (inactive). In addition, the GI50 in the assay with SK-MEL-28 is 26.8 µM (inactive); with SK-MEL-2, 32.9 µM (inactive); in the assay with SK-MEL-5 it was 40.1 µM (inactive); in the assay on SNB-75, 37 µM (inactive).
For `CC(=O)OCC(C)C1=C(OC(C)=O)C(=O)C2(C)C/C=C(/C)CC/C=C(\C)CCC(OC(C)=O)C(C)CCC12` (stereo not drawn), the GI50 is 20.1 µM (inactive) in the assay with DU-145; 10.9 µM (inactive) with HL-60; 25.4 µM (inactive) with Hs-578T; 13.3 µM (inactive) in the assay with K562; 16.9 µM (inactive) with LOX IMVI; 16.6 µM (inactive) with M14. Besides, the GI50 in the assay with MDA-MB-435 is 15.9 µM (inactive); in the assay with NCI-H460, 3.55 µM (inactive); in the assay with PC-3, 14.3 µM (inactive); in the assay on SF-268, 15.4 µM (inactive); with SF-539, 22.2 µM (inactive); in the assay with SK-MEL-28 it was 17.3 µM (inactive). For the same molecule, the values for the GI50 with SK-MEL-2, with SK-MEL-5 and in the assay with SNB-75 were 15 µM (inactive), 15.3 µM (inactive) and 24.7 µM (inactive), respectively.
As for `O=C(CC1(O)C(=O)Nc2ccccc21)c1ccc(Cl)c(Cl)c1` (stereo not drawn), the GI50 in the assay on A549 is > 100 µM (inactive); in the assay on CAKI-1, > 100 µM (inactive); with HL-60, 22.8 µM (inactive); with K562, > 100 µM (inactive); in the assay on LOX IMVI, > 100 µM (inactive); with M14 it was > 100 µM (inactive). The GI50 in the assay with NCI-H460, in the assay on RXF 393, in the assay on SF-268, in the assay with SF-539, in the assay with SK-MEL-28 and with SK-MEL-2 was > 100 µM (inactive) in each case. Further, the GI50 with SK-MEL-5 and in the assay with SNB-75 was > 100 µM (inactive) each time.
Take `Cn1ccnc1S/C(=C\C=C(C#N)C#N)c1ccc(Cl)cc1`: the GI50 is 6.27 µM (inactive) in the assay with A549; 1.69 µM (inactive) with CAKI-1; 6.04 µM (inactive) with DU-145; 0.461 µM (active) with HL-60; 4.38 µM (inactive) in the assay on Hs-578T; 0.252 µM (active) with K562. Besides, the GI50 with M14 was 0.993 µM (active); in the assay with MDA-MB-435 it was 0.951 µM (active); with NCI-H460 it was 7.33 µM (inactive); with PC-3 it was 1.6 µM (inactive); in the assay with RXF 393 it was 1.84 µM (inactive); in the assay on SF-268, 1.84 µM (inactive). Also, the GI50 with SF-539 was 1.21 µM (inactive); in the assay with SK-MEL-28 it was 4.06 µM (inactive); in the assay on SK-MEL-5, 1.13 µM (inactive); with SNB-75, 5.37 µM (inactive).
Take `Clc1ccc(Cl)c(/N=N\c2cc3c4c(c2)CCN4CCC3)c1`: the GI50 with A549, in the assay on CAKI-1, in the assay with DU-145, with HL-60, in the assay with Hs-578T and in the assay with K562 was > 10 µM (inactive) throughout. The GI50 in the assay on LOX IMVI was > 10 µM (inactive); in the assay with M14 it was > 10 µM (inactive); with MDA-MB-435, > 10 µM (inactive); with NCI-H460, > 10 µM (inactive); in the assay with PC-3, > 10 µM (inactive); in the assay with RXF 393 it was 8.65 µM (inactive). The GI50 with SF-268, in the assay on SF-539, in the assay with SK-MEL-28, in the assay on SK-MEL-2, in the assay with SK-MEL-5 and with SNB-75 was > 10 µM (inactive) throughout.
Consider `COc1cc(OC)c(C2c3cc4c(cc3OC(N3CCOCC3)C2C)OCO4)c(OC)c1` (stereo not drawn), for which the GI50 with A549 was 45.9 µM (inactive); in the assay with DU-145 it was 21.5 µM (inactive); with Hs-578T, 2.45 µM (inactive); in the assay on K562 it was 40.8 µM (inactive); in the assay on LOX IMVI, 23.2 µM (inactive); with M14, 53.1 µM (inactive). Also, the GI50 in the assay with MDA-MB-435 was 38.7 µM (inactive); in the assay on NCI-H460 it was 16.4 µM (inactive); with PC-3, 42.3 µM (inactive); in the assay with SF-268 it was 20.5 µM (inactive); with SF-539 it was 12.3 µM (inactive); in the assay with SK-MEL-28, > 100 µM (inactive). In addition, the results for the GI50 in the assay on SK-MEL-2, in the assay on SK-MEL-5 and with SNB-75 were > 100 µM (inactive), 47 µM (inactive) and 16.4 µM (inactive), respectively.
With `O=[N+]([O-])c1ccc(/C=N/n2c(S)nnc2CCc2nnc(S)n2/N=C/c2ccc([N+](=O)[O-])o2)o1`, the GI50 in the assay on CAKI-1 was 20.2 µM (inactive); with DU-145 it was 16.2 µM (inactive); with HL-60, 33.6 µM (inactive); in the assay on Hs-578T, 25.5 µM (inactive); with K562, 28.6 µM (inactive); with LOX IMVI it was 20.4 µM (inactive). Moreover, the GI50 in the assay on M14 is 19.2 µM (inactive); with MDA-MB-435, 17.6 µM (inactive); with NCI-H460 it was 84.5 µM (inactive); with PC-3 it was 82.6 µM (inactive); with RXF 393 it was 16.7 µM (inactive); in the assay with SF-268, 22.3 µM (inactive). The GI50 in the assay on SF-539 was 41.5 µM (inactive); with SK-MEL-28, 16.6 µM (inactive); in the assay on SK-MEL-2, 18.5 µM (inactive); with SK-MEL-5, 17.3 µM (inactive).
For the molecule `CC[N+](C)(CC)CCNC(=O)C(O)(c1ccccc1)c1ccccc1`, the GI50 in the assay with A549, in the assay on BT-549, in the assay on CAKI-1, in the assay on DU-145, with HL-60 and in the assay with K562 was > 100 µM (inactive) throughout. For the same molecule, the GI50 is 0.2 µM (active) in the assay on LOX IMVI; > 100 µM (inactive) in the assay with M14; > 100 µM (inactive) with NCI-H460; > 100 µM (inactive) with PC-3; > 100 µM (inactive) in the assay on RXF 393; > 100 µM (inactive) in the assay with SF-268. Besides, the GI50 in the assay with SF-539 is > 100 µM (inactive); in the assay on SK-MEL-28 it was > 100 µM (inactive); in the assay with SK-MEL-5, > 100 µM (inactive); with SNB-75, 35.6 µM (inactive).
As for `CC(C)C(NCc1c(O)ccc2c(-c3ccccc3)cc(=O)oc12)C(=O)O` (stereo not drawn), the GI50 in the assay with A549, in the assay with CAKI-1, in the assay with DU-145, in the assay with HL-60, in the assay with Hs-578T and with K562 was > 100 µM (inactive) throughout. In addition, the GI50 with LOX IMVI, with M14, with MDA-MB-435, in the assay with NCI-H460, with PC-3 and in the assay on RXF 393 was > 100 µM (inactive) each time. Moreover, the GI50 in the assay on SF-268 was > 100 µM (inactive); with SF-539 it was > 100 µM (inactive); in the assay with SK-MEL-28, > 100 µM (inactive); in the assay with SK-MEL-2, > 100 µM (inactive); with SK-MEL-5 it was > 100 µM (inactive); in the assay on SNB-75 it was 83.9 µM (inactive).
